Results taken from patent US20240335404A1, “SUBSTITUTED ESTERS CONTAINING POLYOLS AND SACCHARIDES FOR TREATING HEPATOTOXICITY AND FATTY LIVER DISEASES” (SINEW PHARMA INC., priority 2015, published 2024).

Tested on: fatty liver
Assay: High fat diet-induced fatty liver in B6 mice
Format: in vivo
Settings: HFD mice; for GSH / Gpx / Grd / SOD: liver; for ALT / AST / TC in liver / TG in liver: administration period of 4 weeks; for liver TC / liver TG: 4 or 8 weeks; for ALT and AST values: compounds administered separately; for liver tissue sections, H&E: treated for 4 weeks, FIG. 5
Experimental: More than four mice were used in each group of the pre-test, while more than twelve mice were used in each group of the confirmatory test. […] The animal test was carried out according to the guideline for animal experiment of National Health Research Institutes. […] The weight of mice was recorded once a week. The tested animals were grouped randomly into Blank, High Fat Diet control (HFD), Positive Control (PS), and Test group. The animals of Blank were fed with normal feed. The animals of HFD were fed with high fat feed. […] The animals of Test group were fed with high fat feed, and additionally fed with test compounds by a tube. The animals of Blank were fed casually with normal feed for 12 weeks, while the animals of HFD, PS, and Test group were fed casually with high fat feed for 12 weeks. After 8 weeks of feeding, the animals of Blank and HFD were fed with deionized water by a tube once a day; the animals of PS were fed with silymarin by a tube once a day; and the animals of Test Group were fed with test compounds by a tube once a day for a duration of 4 or 8 weeks. Before testing and in the eighth, twelfth, and sixteenth week after testing, blood was collected from the cheek or the heart. At the end of testing, all mice were weighted and then sacrificed, and blood was collected from the cheek or the heart simultaneously. The blood specimens of mice rested at room temperature for one hour to clot, and then the serum was separated by centrifugation in a refrigeration centrifuge at 15,700×g at 4° C. for 5 minutes. Afterwards, biochemical indices of liver function, including aspartate transaminase (AST), alanine aminotransferase (ALT), triglyceride (TG), total cholesterol (TCHO/TC), low-density lipoprotein cholesterol (LDL-C), and high-density lipoprotein cholesterol (HDL-C), were detected by the automatic blood biochemistry analyzer. In addition, abdominal fat and liver specimens were taken from the abdomens of sacrificed mice and weighted to compare the weight of fat and liver and obtain the ratio of liver weight to body weight. […] The cut sections proceeded with H&E staining for histopathological observation. Moreover, the rest of the liver was frozen for preservation and detection of the contents of triglyceride and total cholesterol in the liver. Furthermore, the liver function of animals of each group were analyzed by Galactose Single Point Method, which was recognized and recommended for quantification of remaining liver function in clinical use by U.S. FDA and Ministry of Health and Welfare, Taiwan. […] One hour after the administration, about 0.5 ml of whole blood was taken by using a filter paper to evaluate liver function of mice. The higher the value of GSP was, the worse the remaining liver function would be. (FDA: “Guidance for Industry: Pharmacokinetics in Patients with Impaired. Hepatic Function-Study Design, Data Analysis and Impact on Dosing and. Labeling. 2003. At the end of the test, all mice were sacrificed. […] Afterwards, xylene was replaced with hot paraffin solution. At last, the tissue was embedded with paraffin solution. The finished paraffin specimen was cut into […] paraffin sections by the microtome. The sections were pasted on clean slides, dried at 37° C., and then stained by H&E staining. In order to observe the changes of lesion, fat accumulation, necrosis, or fibrosis in liver cells when there was an ongoing liver damage, liver tissues were H&E stained to evaluate the degree of liver fat accumulation. All the histopathological sections were cut from the same position on the largest right lobe of liver for eliminating bias in subjective observation, and then subject to pathological staining. As for the assessment of semi-quantitative analysis in pathology, it had to be confirmed by a physician or a veterinary pathologist who conducted a double-blind analysis to score (NAS score) and compare all the sections without knowing the test design. […]

[1] = 2.5 mg/kg, test period of 4 weeks
[2] = 1.5 mg/kg, test period of 4 weeks

Row | Structure (SMILES) | GSH [1] | Gpx [1] | Grd [1] | SOD [1] | Abdominal fat weight (2.5 mg/kg) | Increase of body weight (2.5 mg/kg) | Liver weight (2.5 mg/kg) | ALT (2.5 mg/kg) | AST (2.5 mg/kg) | TC in liver (2.5 mg/kg) | TG in liver (2.5 mg/kg) | liver TC | liver TG | liver antioxidant activity (4 weeks) | ALT and AST values | liver tissue sections, H&E | Abdominal fat weight (1.5 mg/kg) | Increase of body weight (1.5 mg/kg) | Liver weight (1.5 mg/kg) | ALT (1.5 mg/kg) | also measured
1 | O=C1C[C@@H](c2ccc(O)c(O)c2)Oc2cc(O)cc(O)c21 [Eriodictyol] | 1302.0 ± 241.1 U/L | 3083.3 ± 378.9 U/L | 86.9 ± 15.7 U/L | 385.9 ± 34.0 U/L | 2.7 ± 0.6 g | 8.3 ± 6.7 g | 1.3 ± 0.1 g | 33.7 ± 18.5 U/L | 100.9 ± 42.0 U/L | 3.8 ± 1.1 mg/g liver | 43.1 ± 13.1 mg/g liver | reduce TC in liver significantly | reduce TG in liver significantly | improve antioxidant activity significantly | reduce ALT and AST values significantly | large vesicular fat droplets within liver cells in liver tissue section were significantly reduced | – | – | – | – | NAS [1]: 1.5 ± 0.8 mg/g liver; ALT (5.0 mg/kg): 41.4 ± 6.3 U/L; AST (5.0 mg/kg): 161.4 ± 42.3 U/L; TC in liver (5.0 mg/kg): 3.0 ± 0.9 mg/g liver; TG in liver (5.0 mg/kg): 54.2 ± 15.0 mg/g liver; reduction in liver TG content (4-week treatment, p<0.005): about 67%; liver damage, NAS (4 weeks): reduce liver damage significantly
2 | COc1ccc([C@@H]2CC(=O)c3c(O)cc(O)cc3O2)cc1O [Hesperitin] | 1742.6 ± 241.5 U/L | 3133.3 ± 376.9 U/L | 102.5 ± 28.3 U/L | 408.3 ± 66.7 U/L | 3.0 ± 0.5 g | 14.5 ± 8.3 g | 1.5 ± 0.1 g | 36.8 ± 22.1 U/L | 72.4 ± 11.2 U/L | 3.7 ± 0.7 mg/g liver | 67.8 ± 16.6 mg/g liver | reduce TC in liver significantly | reduce TG in liver significantly | improve antioxidant activity significantly | reduce ALT and AST values significantly | – | – | – | – | – | –
3 | CC1CCC(C(C)C)C(O)C1 (centres unmarked) [Menthol] | – | – | – | – | – | – | – | – | – | – | – | reduce TC in liver significantly | reduce TG in liver significantly | – | reduce ALT and AST values significantly | large vesicular fat droplets within liver cells in liver tissue section were significantly reduced | 2.3 ± 0.6 g | 19.6 ± 5.0 g | 1.6 ± 0.2 g | 41.5 ± 13.7 U/L | weight of abdominal fat: reduce the weight of abdominal fat in animals significantly; GSH [2]: 1432.7 ± 104.0 U/L; Gpx [2]: 2921.7 ± 640.2 U/L; Grd [2]: 95.2 ± 16.2 U/L; SOD [2]: 427.9 ± 41.9 U/L; AST (1.5 mg/kg): 129.9 ± 37.1 U/L; TC in liver (1.5 mg/kg): 4.4 ± 3.5 mg/g liver; TG in liver (1.5 mg/kg): 87.3 ± 72.3 mg/g liver
4 | O=C(CCc1ccc(O)cc1)c1c(O)cc(O)cc1O[C@@H]1O[C@H](CO)[C@@H](O)[C@H](O)[C@H]1O [Phloridzin] | 1387.7 ± 168.2 U/L | 3234.0 ± 505.1 U/L | 82.2 ± 33.6 U/L | 411.5 ± 87.5 U/L | 2.3 ± 0.6 g | 13.7 ± 10.7 g | 1.3 ± 0.1 g | 35.7 ± 9.1 U/L | 161.9 ± 96.2 U/L | 2.9 ± 0.5 mg/g liver | 48.9 ± 14.1 mg/g liver | – | – | – | – | – | – | – | – | – | –
5 | O=c1c(-c2ccc(O)cc2)coc2c([C@@H]3O[C@H](CO)[C@@H](O)[C@H](O)[C@H]3O)c(O)ccc12 [Puerarin] | 1498.1 ± 150.0 U/L | 3581.7 ± 1056.7 U/L | 99.0 ± 17.2 U/L | 434.5 ± 59.8 U/L | 2.8 ± 0.3 g | 21.7 ± 3.1 g | 1.4 ± 0.2 g | 34.4 ± 14.7 U/L | 66.9 ± 8.5 U/L | 6.7 ± 2.7 mg/g liver | 89.4 ± 49.1 mg/g liver | – | reduce TG in liver significantly | improve antioxidant activity significantly | reduce ALT and AST values significantly | – | – | – | – | – | –
6 | O=C1NS(=O)(=O)c2ccccc21 [Saccharin] | – | – | – | – | – | – | – | – | – | – | – | reduce TC in liver significantly | – | – | reduce ALT and AST values significantly | – | 2.3 ± 0.5 g | 27.7 ± 12.7 g | 1.5 ± 0.1 g | 50.7 ± 29.7 U/L | AST (1.5 mg/kg): 170.4 ± 28.6 U/L; TC in liver (1.5 mg/kg): 2.8 ± 1.5 mg/g liver; TG in liver (1.5 mg/kg): 84.0 ± 41.4 mg/g liver; reduction in liver TC content (4-week treatment, p<0.005): about 56%
